Source: patent US20090054526A1, “INHIBITORS OF ANOREXIC LIPID HYDROLYSIS FOR THE TREATMENT OF EATING DISORDERS” (priority 2005, published 2009)

Experiments:
[1] = tested on: ceramidase; test: Ceramide hydrolysis in rat intestinal homogenate; format: biochemical; details: for inhibition of ceramide hydrolysis: pH 7.0, 50 μM 14C-octanoyl-D-sphingosine, 25 μg protein, 20 min, inhibitor concentration not given ('same concentration')
Method: Enzymatic hydrolysis of ceramide is measured in an assay containing 5-500 μg of intestinal protein incubated with 1-5000 μM of ^14C-ceramide [(N-[1-^14C]acyl-D-erythro sphingosine (with the acyl group being from six to twenty carbon atoms) and dilutions thereof with non-radioactive ceramide to obtain a specific activity of 0.1-100,000 dpm/pmol], which is sonicated in buffer or added in 5-50 μl of ethanol, to a total volume of 50-500 μl of 10-100 mM buffer (pH 3-11) initially utilizing 100 mM Tris-HCl (pH 8.0) containing 0-100 mM CHAPS, 0-10 mM DTT, 0-1% Nonidet P-40, 0-5 mg/ml of bovine serum albumin, and 0-500 mM NaCl with or without addition of D-erythro-MAPP (or a related compound; dissolved 1-10 μl ethanol) in a final concentration of 0.0001-1000 μM (1-10 μl ethanol is added to control assays). Incubations are carried out at 37° C. for 0-120 min and samples are withdrawn at 2-3 time points. The reaction in each sample is terminated by addition of 200-1000 μl of methanol:chloroform:heptane (28:25:20 v/v/v) and 50-400 μl of potassium carbonate buffer (pH 10). After mixing, the samples are centrifuged 1-20 min at low speed centrifugation and 50-400 μl of the upper phase is extracted and the radio-labeled product, free fatty acid, in the upper phase is quantified by liquid scintillation counting. From selected samples, another 50-400 μl aliquot of the upper phase as well as 50-400 μl of the lower phase are evaporated to dryness under a stream of nitrogen, re-dissolved in 10-200 μl of chloroform:methanol (19:1 v/v) and applied on thin-layer chromatography plates, eluted in chloroform:methanol:acetic acid (94:1:5 v/v/v) followed by quantification of the distribution of the radiolabeled free fatty acid in the two phases using a Phosphorlmager scanner (STORM; Molecular Dynamics, Sunnyvale, Calif., USA) and ImageQuant software (GE Health Care, Amersham, United Kingdom). The distribution of released fatty acid is used to calculate the total amount of product formed in each sample. […]

[2] = tested on: dietary obese mice; test: Sub-chronic food intake, water intake and body weight study in dietary obese mice; format: in vivo; details: for cumulative food intake: D-threo-NMAPPD 30 mg/kg, OEA 2 mg/kg, or both mixed, high-fat diet, mean±SEM
Method: Food intake studies are performed with male Sprague-Dawley rats (250-350 g) or male C57BL/6J mice (Charles River, Sulzfeld, Germany). […] These animals are left on the diet for 12 weeks before the experiment is commenced. The animals are group randomized into weight-matched groups of n=4-12 to receive up to four administrations (0.1-10 ml/kg p.o., i.p., s.c., or i.v.) of a test compound (e.g. MAPP or NMAPPD) or vehicle (saline optionally with Tween 80, polyethylene glycol, DMSO, ethanol, Cremophor excipient) with at least seven days interval. All compounds are administered just prior to the beginning of the dark period optionally after a 24 h fasting period. Food intake (digital balance) and water intake (registered gravimetrically or by means of lick counts) and activity (consecutive beam breaks) are monitored for at least 12 hours following the time of injection. After the treatment, the animals are euthanized by use of CO2 followed by decapitation.
3C. Furthermore, a study with dietary obese mice was carried out. After 12 weeks on high-fat diet, animals were stratified according to weight. At day −3, animals were randomised in 5 groups (n=9-10 in each group) to participate in one of following drug treatment groups; vehicle (5% Tween 80, 5% polyethylene glycol, 90% saline), OEA 2 mg/kg, OEA 5 mg/kg, D-threo-NMAPPD 30 mg/kg, D-threo-NMAPPD 30 mg/kg+OEA 2 mg/kg (mixed). The animals received one intraperitoneal injection daily (2 ml/kg) of vehicle or drug(s) suspended in vehicle at […]. The experiment was preceded by a 3 day run-in period with mock injections and handling to habituate the animals to the injection paradigm. On day 0 the animals were dosed for the first time. All animals were fed high-fat diet ad lib—also during the treatment period. Body weight, food and water intake was measured every other day for the following 14 days depending on the animal's state.

[3] = tested on: acylethanolamide hydrolyzing enzyme (FAAH and an enzyme different from FAAH) in rat intestinal homogenate; test: OEA and anandamide (acylethanolamide) hydrolysis in rat intestinal homogenate; format: biochemical; details: for inhibition of OEA hydrolysis: pH 7.0, 50 μM 3H-OEA, 20 min, inhibitor concentration not given ('same concentration')
Method: Enzymatic hydrolysis of OEA is investigated in an assay containing 5-500 μg of intestinal protein incubated with 1-500 μM of ^3H-OEA ([1-^3H-ethanolamine]OEA and dilutions thereof with non-radioactive OEA to obtain a specific activity of 0.1-100,000 dpm/pmol) or ^3H-anandamide ([1−^3H-ethanolamine]anandamide and dilutions thereof with non-radioactive anandamide to obtain a specific activity of 0.1-100,000 dpm/pmol) in a total volume of 100-500 μl of 10-100 mM buffer (pH 3-11), initially utilizing 100 mM Tris-HCl (pH 8.0) containing 0-2 mM EDTA and 0-5 mg/ml of fatty acid-free bovine serum albumin with or without addition of D-erythro-MAPP (or a related compound; dissolved in 1-10 μl ethanol) in a final concentration of 0.0001-1000 μM (1-10 μl ethanol is added to control assays). Incubations are carried out at 37° C. for 0-120 min and samples are withdrawn at 2-3 time points. The reaction in a sample is terminated by addition of 200-1000 μl of chloroform:methanol (1:1 v/v) and cooling on ice, followed by 10 min centrifugation at low speed, where after 50-250 μl of the upper phase is extracted and the radio-labeled product ethanolamine formed is quantified by liquid scintillation counting. […]
The reaction in a sample is terminated by addition of 400 μl chloroform:methanol (1:1 v/v) and cooling on ice, followed by 10 min centrifugation at low speed, where after 100 μl of the upper phase is extracted and the radio-labeled product ethanolamine formed is quantified by liquid scintillation counting. In another set of experiments the following assay conditions are adjusted—in order to be identical to those of the ceramidase assay (see example 1B)—by using 25 μg of protein from rat intestinal (jejunum) homogenate in a total volume of 100 μl, 50 μM of ^3H-oleoylethanolamide (OEA; 25.000 dpm) or ^3H-anandamide (AEA; 25.000 dpm), 100 mM citrate phosphate (7.0), 8 mM CHAPS. […] Incubation at 37° C. is carried out for 0 and 20 min after establishment of linearity of product formation within this time frame. […]

[4] = tested on: diet-induced obese mice; details: 5 mg/kg OEA i.p. daily, from day 2 and on, refs (9,22); cited from earlier work
[5] = tested on: diet-induced obese rats; details: 5 mg/kg OEA i.p. daily, from day 2 and on, refs (9,22); cited from earlier work

CCCCCCCCCCCCCC(=O)N[C@H](CO)[C@H](O)c1ccc([N+](=O)[O-])cc1 [D-threo-NMAPPD, (1R,2R) D-threo-N-myristoyl-2-amino-1-(4′-nitrophenyl)-1,3-propandiol]
inhibition of ceramide hydrolysis [1]: 30%
food intake versus vehicle ([2]; D-threo-NMAPPD 30 mg/kg i.p. daily (alone and with OEA 2 mg/kg), from day 1): consistently and significantly reduced
water intake versus vehicle ([2]; daily i.p., D-threo-NMAPPD 30 mg/kg at day 1 and day 12, or with OEA 2 mg/kg (FIG. 4B)): significant decreased water intake
loss of body weight ([2]; day 12, daily i.p., D-threo-NMAPPD 30 mg/kg alone or with OEA 2 mg/kg, vehicle 3.7%): 8.9%
cumulative food intake ([2]; day 12, daily i.p.): 20.4 ± 1.2 g
inhibition of OEA hydrolysis ([3]; 25 μg protein): 30%
dose dependence of inhibition of OEA hydrolysis ([3]; pH 7.0, increasing concentrations (FIG. 2C)): dose-dependent inhibition

NC(=O)c1cccc(-c2cccc(OC(=O)NC3CCCCC3)c2)c1 [URB597, cyclohexyl carbamic acid 3′-carbamoyl-biphenyl-3-yl ester, reference compound]
effect on ceramide hydrolysis over pH range ([1]; 10 μM URB597, pH profile (FIG. 3C)): completely unaffected
effect on hydrolysis of OEA and AEA over pH range ([3]; 10 μM URB597, pH 5.5 to pH 10.5 (FIG. 3C)): to varying degrees were inhibited
inhibition of acylethanolamide hydrolysis ([3]; 10 μM inhibitor, pH 7.0, 50 μM substrate, 25 μg protein, 20 min 37° C. (FIG. 2A)): approximately 79%

CCCCCCCCCCCCCC(=O)N[C@H](C)[C@@H](O)c1ccccc1 [D-erythro-MAPP, (1S,2R) D-erythro-N-myristoyl-2-amino-1-phenyl-propanol]
inhibition of ceramide hydrolysis [1]: approximately 24%
inhibition of OEA hydrolysis ([3]; 25 μg protein): 11%
effect on AEA hydrolysis ([3]; pH 7.0, 50 μM 3H-anandamide, inhibitor concentration not clearly printed): unaffected

CCCCCCCC/C=C\CCCCCCCC(=O)NCCO [OEA, oleoylethanolamide, reference compound]
body weight change [4]: reduced body weight change
body weight change [5]: reduced body weight change
food intake versus vehicle ([2]; OEA 2 mg/kg i.p. daily, day 12): not significantly different
food intake versus vehicle ([2]; OEA 5 mg/kg i.p. daily, day 5 and 7): significantly reduced food intake
cumulative food intake ([2]; day 12, daily i.p.): 23.3 ± 1.0 g
